Source: ChEMBL document CHEMBL4190379 (Bioorg Med Chem Lett, 2018)

Assays:
[1] = biological target: Bromodomain adjacent to zinc finger domain protein 2B (Homo sapiens) (UniProt Q9UIF8); assay: Binding affinity to human BAZ2B expressed in bacterial system assessed as remaining binding level at 1 uM by BROMOscan assay relative to control
[2] = biological target: T1, Transcription intermediary factor 1-alpha (Homo sapiens) (UniProt O15164); assay: Binding affinity to human TRIM24-phd-bromo expressed in bacterial system assessed as remaining binding level at 1 uM by BROMOscan assay relative to control
T1 sequence (whole entry): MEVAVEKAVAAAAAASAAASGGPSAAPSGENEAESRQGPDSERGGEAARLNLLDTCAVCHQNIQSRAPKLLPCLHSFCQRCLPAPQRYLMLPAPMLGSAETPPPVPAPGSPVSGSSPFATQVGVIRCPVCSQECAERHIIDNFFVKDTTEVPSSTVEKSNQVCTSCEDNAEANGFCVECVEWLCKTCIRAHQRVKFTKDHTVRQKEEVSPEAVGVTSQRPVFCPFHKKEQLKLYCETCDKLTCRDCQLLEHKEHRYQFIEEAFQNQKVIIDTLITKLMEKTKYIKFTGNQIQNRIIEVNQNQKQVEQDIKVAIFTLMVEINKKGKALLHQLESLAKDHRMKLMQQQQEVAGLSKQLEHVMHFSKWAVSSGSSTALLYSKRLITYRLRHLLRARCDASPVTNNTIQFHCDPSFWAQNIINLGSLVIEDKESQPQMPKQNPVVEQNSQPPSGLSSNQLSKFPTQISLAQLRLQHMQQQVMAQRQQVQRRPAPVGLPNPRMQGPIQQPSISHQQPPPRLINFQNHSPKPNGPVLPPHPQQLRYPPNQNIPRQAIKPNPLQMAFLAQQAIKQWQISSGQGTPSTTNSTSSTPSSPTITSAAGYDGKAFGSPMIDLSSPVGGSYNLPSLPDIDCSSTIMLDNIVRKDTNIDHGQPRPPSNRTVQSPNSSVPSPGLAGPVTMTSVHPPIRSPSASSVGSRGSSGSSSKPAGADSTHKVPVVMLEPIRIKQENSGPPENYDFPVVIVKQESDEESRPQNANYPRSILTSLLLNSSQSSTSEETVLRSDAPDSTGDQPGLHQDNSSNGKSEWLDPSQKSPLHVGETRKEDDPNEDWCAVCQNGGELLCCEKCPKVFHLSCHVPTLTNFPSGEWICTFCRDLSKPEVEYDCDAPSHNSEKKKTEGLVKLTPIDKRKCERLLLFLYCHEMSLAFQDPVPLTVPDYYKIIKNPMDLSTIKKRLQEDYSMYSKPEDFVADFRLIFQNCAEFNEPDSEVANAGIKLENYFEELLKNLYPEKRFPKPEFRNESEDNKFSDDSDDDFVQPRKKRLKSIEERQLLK

[3] = biological target: Chromatin remodeling regulator CECR2 (Homo sapiens) (UniProt Q9BXF3); assay: Binding affinity to human CECR2 expressed in bacterial system assessed as remaining binding level at 1 uM by BROMOscan assay relative to control
[4] = biological target: T2, ATPase family AAA domain-containing protein 2 (Homo sapiens) (UniProt Q6PL18); assay: Binding affinity to human ATAD2A expressed in bacterial system assessed as remaining binding level at 1 uM by BROMOscan assay relative to control
T2 sequence (whole entry): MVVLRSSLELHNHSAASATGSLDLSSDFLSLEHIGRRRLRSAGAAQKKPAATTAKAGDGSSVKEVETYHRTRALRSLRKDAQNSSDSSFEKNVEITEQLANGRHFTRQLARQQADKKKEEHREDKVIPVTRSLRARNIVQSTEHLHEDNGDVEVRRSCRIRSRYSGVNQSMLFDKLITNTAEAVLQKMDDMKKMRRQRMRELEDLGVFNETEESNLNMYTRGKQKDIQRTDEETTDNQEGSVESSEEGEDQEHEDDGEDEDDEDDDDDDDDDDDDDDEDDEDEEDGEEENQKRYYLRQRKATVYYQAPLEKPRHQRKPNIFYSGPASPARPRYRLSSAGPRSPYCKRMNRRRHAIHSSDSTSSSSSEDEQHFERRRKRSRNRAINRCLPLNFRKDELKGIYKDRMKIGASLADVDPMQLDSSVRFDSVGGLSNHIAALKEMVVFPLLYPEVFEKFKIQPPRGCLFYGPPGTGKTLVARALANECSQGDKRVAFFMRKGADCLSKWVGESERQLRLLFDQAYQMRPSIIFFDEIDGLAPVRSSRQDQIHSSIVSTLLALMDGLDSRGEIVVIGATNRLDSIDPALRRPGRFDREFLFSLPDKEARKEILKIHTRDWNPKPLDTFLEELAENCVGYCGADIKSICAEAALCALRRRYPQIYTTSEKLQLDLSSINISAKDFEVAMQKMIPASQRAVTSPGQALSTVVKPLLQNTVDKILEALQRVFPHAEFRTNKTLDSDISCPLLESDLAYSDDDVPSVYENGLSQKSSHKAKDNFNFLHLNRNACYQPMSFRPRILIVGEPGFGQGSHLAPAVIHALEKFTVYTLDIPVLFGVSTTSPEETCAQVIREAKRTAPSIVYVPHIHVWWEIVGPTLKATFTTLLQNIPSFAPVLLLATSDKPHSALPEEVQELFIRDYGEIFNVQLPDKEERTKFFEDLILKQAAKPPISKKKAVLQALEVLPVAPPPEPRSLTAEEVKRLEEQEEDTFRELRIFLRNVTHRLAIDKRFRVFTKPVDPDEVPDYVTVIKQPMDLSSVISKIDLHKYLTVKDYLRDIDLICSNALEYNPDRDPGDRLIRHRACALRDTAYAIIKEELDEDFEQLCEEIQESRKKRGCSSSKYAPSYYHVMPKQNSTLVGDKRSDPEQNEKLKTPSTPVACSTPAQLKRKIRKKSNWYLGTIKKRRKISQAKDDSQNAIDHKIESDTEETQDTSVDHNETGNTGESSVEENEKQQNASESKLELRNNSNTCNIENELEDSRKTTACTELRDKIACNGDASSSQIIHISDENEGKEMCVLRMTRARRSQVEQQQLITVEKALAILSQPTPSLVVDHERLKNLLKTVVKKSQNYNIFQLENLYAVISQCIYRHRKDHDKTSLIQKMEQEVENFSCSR

Chromatin remodeling regulator CECR2 (Homo sapiens), sequence (Q9BXF3 whole entry, looked up, the tested form may be a part): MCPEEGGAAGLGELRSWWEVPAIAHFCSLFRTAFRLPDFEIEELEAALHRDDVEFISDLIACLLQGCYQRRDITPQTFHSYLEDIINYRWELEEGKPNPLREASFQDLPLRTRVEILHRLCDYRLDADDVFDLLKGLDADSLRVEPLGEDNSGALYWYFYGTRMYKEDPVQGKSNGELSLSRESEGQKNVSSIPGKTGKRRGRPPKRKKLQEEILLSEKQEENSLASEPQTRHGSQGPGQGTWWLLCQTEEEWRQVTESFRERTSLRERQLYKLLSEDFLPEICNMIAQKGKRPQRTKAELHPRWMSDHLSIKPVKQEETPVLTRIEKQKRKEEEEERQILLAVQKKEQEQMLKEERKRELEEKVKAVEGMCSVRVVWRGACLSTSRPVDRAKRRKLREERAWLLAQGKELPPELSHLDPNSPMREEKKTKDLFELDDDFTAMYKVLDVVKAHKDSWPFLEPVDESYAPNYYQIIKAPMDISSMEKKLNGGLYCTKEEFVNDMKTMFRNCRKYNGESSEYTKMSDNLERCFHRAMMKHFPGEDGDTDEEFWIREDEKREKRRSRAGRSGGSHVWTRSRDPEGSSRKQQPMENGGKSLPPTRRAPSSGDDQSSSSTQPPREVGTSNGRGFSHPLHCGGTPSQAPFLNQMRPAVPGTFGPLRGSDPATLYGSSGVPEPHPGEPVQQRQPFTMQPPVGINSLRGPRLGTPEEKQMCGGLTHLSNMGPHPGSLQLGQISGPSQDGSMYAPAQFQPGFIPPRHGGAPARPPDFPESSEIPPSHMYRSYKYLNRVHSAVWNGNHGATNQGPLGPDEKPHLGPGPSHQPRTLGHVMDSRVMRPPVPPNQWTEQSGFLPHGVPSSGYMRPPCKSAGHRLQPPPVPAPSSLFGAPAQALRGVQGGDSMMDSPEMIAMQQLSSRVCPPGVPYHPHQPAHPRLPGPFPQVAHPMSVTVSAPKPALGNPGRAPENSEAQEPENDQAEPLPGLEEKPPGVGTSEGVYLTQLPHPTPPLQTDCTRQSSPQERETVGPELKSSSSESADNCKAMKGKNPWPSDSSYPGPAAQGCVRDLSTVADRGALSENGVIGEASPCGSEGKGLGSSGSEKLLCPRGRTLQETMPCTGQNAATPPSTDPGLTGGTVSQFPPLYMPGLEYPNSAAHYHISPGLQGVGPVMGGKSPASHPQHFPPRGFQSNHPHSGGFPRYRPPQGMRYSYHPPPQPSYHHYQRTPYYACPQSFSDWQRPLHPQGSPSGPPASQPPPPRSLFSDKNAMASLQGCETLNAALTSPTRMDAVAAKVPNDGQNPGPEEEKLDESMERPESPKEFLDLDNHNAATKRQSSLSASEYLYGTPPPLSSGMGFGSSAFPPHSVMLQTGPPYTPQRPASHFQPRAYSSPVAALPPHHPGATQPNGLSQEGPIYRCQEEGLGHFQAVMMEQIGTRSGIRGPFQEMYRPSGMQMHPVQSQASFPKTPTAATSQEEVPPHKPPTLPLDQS
Bromodomain adjacent to zinc finger domain protein 2B (Homo sapiens), sequence (Q9UIF8 whole entry, the tested form may be a part): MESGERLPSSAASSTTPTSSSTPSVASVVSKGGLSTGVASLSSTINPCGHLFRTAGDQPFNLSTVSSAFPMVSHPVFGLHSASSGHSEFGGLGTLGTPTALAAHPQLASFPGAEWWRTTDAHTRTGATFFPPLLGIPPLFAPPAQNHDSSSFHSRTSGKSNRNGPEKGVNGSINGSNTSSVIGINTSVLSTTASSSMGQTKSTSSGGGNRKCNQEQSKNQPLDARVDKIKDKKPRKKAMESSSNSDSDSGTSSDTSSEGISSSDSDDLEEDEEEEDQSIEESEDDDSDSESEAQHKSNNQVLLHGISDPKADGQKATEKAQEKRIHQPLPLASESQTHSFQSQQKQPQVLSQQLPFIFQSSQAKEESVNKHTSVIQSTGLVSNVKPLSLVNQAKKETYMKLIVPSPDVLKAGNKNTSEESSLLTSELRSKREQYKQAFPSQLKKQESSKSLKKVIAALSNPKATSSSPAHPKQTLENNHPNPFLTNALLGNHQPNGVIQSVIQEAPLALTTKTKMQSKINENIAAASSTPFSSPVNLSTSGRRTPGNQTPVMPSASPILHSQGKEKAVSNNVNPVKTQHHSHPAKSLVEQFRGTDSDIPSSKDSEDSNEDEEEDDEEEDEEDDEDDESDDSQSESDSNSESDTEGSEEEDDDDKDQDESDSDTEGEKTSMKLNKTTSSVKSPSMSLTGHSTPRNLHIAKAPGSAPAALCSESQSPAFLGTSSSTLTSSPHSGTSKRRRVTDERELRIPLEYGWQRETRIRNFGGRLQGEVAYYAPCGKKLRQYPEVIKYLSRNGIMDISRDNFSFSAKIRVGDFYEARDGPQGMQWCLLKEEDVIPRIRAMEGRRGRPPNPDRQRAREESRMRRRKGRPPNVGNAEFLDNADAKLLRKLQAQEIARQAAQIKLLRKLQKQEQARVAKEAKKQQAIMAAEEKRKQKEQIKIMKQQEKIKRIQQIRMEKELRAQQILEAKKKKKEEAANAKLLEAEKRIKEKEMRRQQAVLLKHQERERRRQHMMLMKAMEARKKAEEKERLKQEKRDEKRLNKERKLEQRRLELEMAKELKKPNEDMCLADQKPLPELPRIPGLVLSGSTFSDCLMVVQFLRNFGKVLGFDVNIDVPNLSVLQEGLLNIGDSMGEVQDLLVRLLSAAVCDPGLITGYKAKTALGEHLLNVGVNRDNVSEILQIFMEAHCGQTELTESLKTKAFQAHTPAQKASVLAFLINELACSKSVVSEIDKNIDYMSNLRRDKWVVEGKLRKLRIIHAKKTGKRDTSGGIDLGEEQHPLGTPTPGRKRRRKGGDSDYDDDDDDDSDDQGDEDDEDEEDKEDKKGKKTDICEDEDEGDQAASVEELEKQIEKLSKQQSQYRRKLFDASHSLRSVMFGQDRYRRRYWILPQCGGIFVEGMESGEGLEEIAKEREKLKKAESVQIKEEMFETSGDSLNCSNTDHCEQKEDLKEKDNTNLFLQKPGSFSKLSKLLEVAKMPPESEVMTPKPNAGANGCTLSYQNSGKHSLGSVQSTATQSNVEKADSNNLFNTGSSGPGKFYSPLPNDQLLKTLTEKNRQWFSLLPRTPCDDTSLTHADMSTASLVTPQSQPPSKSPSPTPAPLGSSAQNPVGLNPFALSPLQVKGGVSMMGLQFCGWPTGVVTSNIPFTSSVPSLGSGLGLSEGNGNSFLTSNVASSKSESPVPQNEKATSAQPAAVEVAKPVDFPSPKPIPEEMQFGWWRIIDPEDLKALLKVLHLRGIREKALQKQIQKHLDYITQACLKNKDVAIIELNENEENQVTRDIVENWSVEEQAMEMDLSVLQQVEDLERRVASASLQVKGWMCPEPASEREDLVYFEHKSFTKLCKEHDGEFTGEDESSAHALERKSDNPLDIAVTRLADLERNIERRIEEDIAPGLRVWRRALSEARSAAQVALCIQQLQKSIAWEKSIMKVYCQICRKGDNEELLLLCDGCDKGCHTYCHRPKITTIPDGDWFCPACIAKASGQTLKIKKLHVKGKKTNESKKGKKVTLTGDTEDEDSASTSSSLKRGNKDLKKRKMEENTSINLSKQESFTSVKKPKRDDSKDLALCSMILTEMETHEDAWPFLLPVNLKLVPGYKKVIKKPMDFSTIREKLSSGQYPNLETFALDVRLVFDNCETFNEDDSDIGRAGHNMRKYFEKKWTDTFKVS

Activity [1] [%]	Activity [2] [%]	Activity [3] [%]	Activity [4] [%]	SMILES
100	90	100	100	Cn1cc2c3c(c[nH]c(=O)c31)-c1cc(CS(C)(=O)=O)ccc1N(c1ccc(F)cc1)C2
72	54	67	68	Cn1cc2c3c(c[nH]c3c1=O)CN(c1ccccn1)c1ccc(CS(C)(=O)=O)cc1-2
70	67	81	4.6	Cn1cc2c3c(c[nH]c3c1=O)CN(c1ccc(F)cc1F)c1ccc(CS(C)(=O)=O)cc1-2
